Data on 28 compounds can be found in US10280145B2 (Toray Industries, Inc., priority 2015, dated 2019).

In general, IC50 refers to the point on the concentration scale where inhibition reaches its midpoint. A higher IC50 goes with weaker potency.

T1 sequence (Q08345 439-913 limits assumed): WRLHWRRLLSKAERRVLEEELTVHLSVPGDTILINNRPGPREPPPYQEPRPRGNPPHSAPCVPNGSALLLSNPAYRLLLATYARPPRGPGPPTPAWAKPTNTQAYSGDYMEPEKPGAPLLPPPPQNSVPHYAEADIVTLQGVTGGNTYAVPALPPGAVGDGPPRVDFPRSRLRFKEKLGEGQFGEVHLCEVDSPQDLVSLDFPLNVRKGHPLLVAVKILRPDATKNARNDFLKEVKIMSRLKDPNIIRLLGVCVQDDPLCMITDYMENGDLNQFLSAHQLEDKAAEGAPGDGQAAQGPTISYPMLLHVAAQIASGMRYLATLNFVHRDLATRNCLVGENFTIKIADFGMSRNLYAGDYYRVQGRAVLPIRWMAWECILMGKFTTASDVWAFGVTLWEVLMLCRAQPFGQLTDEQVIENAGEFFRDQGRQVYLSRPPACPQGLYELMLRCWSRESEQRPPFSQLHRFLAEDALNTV

The test has as its target T1, intracellular domain of DDR1 (Homo sapiens, UniProt Q08345).
T1 construct: the intracellular domain of DDR1 (in a final concentration of 5 ng/μL) (Carna Biosciences, Inc.); purchased Carna Biosciences, Inc
Put plainly: Evaluation of DDR1 inhibition activity with HTRF KinEASE-TK kit. In kind it is biochemical. Particulars: DDR1 intracellular domain 5 ng/μL, ATP 25 μm/L, TK Substrate-biotin 1000 nmol/L, room temperature, one hour. As to the method:
The DDR1 inhibition activity in the compounds of Examples 1 to 80 was evaluated with HTRF® KinEASE-TK kit (Cisbio Bioassays).
Each test substance was dissolved in dimethyl sulfoxide and then used for the evaluation as described below. Moreover, each of test substances and reagents was diluted in the kinase buffer (Cisbio Bioassays) prepared by adding thereto MgCl2, MnCl2, DTT, and the Supplemental Enzyme buffer (Cisbio Bioassays) to concentrations of 5 mmol/L, 0.5 mmol/L, 0.25 mmol/L, and 50 nmol/L, respectively, and then used. Each test substance (in DMSO in a final concentration of 1%), the intracellular domain of DDR1 (in a final concentration of 5 ng/μL) (Carna Biosciences, Inc.), the phosphate donor ATP (in final concentration of 25 μm/L) (Sigma), and the substrate TK Substrate-biotin (in a final concentration of 1000 nmol/L) (Cisbio Bioassays) were added to a 384-well black plate (Corning) and allowed to react at room temperature for one hour. After completion of the reaction, the TK Antibody-Cryptate (Cisbio Bioassays) and the Streptavidin-XL665 (Cisbio Bioassays) were added thereto and allowed to react at room temperature for one hour. In addition, the plate was provided with a well to which a test substance was not added, and with a well to which a test substance and the intracellular domain of DDR1 were […].
The fluorescence intensity in each well was measured using a multi-label counter (Envision, PerkinElmer; excitation wavelength: 320 nm, measurement wavelength: 665 nm and 620 nm) to calculate a ratio (the fluorescence intensity at 665 nm/the fluorescence intensity at 620 nm). The inhibition rate (%) of a test substance at each concentration was calculated based on the formula below: Inhibition rate (%)=([the ratio obtained from the well containing no test substance]−[the ratio from a well containing a test substance])/([the ratio obtained from the well containing no test substance]−[the ratio obtained from the well containing no intracellular domain of DDR1 and no test substance])×100.
The calculated inhibition rates were fitted to a sigmoidal dose-response curve by regression analysis using the Prism 5.04 (GraphPad Software, Inc.) to calculate the IC50 value of the test substance.
For orientation: TR-FRET usually uses a lanthanide donor and a delayed reading to cut background.
In the case of `COc1ccc(OC(F)(F)F)cc1NC(=O)N[C@H]1CC[C@H](Oc2ccnc(-c3cccnc3)n2)CC1` [Example 39, 1-(2-methoxy-5-(trifluoromethoxy)phenyl)-3-(trans-4-((2-(pyridin-3-yl)pyrimidin-4-yl)oxy)cyclohexyl)urea], the IC50 was 236 nM. On to `COc1ccc(C(F)(F)F)cc1NC(=O)N[C@H]1CC[C@H](Oc2nccc(-c3cccnc3)n2)CC1` [Example 40, 1-(2-methoxy-5-(trifluoromethyl)phenyl)-3-(trans-4-((4-(pyridin-3-yl)pyrimidin-2-yl)oxy)cyclohexyl)urea], for which the half-inhibitory concentration (IC50) is 98 nM.

With `O=C(Nc1cc(C(F)(F)F)ccc1OC1COC1)N[C@H]1CC[C@H](Oc2nccc(-c3cccnc3)n2)CC1` [Example 41, 1-(2-(oxetan-3-yloxy)-5-(trifluoromethyl)phenyl)-3-(trans-4-((4-(pyridin-3-yl)pyrimidin-2-yl)oxy)cyclohexyl)urea], half-maximal inhibition (IC50) was put at 45.6 nM. In turn, `CNc1cc(O[C@H]2CC[C@H](NC(=O)Nc3cc(C(F)(F)F)ccc3OC3CNC3)CC2)ncn1` [Example 42] registered a half-inhibitory concentration (IC50) of 27.2 nM.

Compound `CNc1cc(O[C@H]2CC[C@H](NC(=O)Nc3cc(C(F)(F)F)ccc3OC3CCNCC3)CC2)ncn1` [Example 43] displayed an IC50 of 31.3 nM.

In turn, `O=C(Nc1cc(OC(F)(F)F)ccc1OC1COC1)N[C@H]1CC[C@H](Oc2ccnc(N3CCOCC3)n2)CC1` [Example 44, 1-(trans-4-((2-morpholinopyrimidin-4-yl)oxy)cyclohexyl)-3-(2-(oxetan-3-yloxy)-5-(trifluoromethoxy)phenyl)urea] had an IC50 of 128 nM. `COc1c(CO)cc(C(F)(F)F)cc1NC(=O)N[C@H]1CC[C@H](Oc2ccnc(-c3cccnc3)n2)CC1` [Example 45, 1-(3-(hydroxymethyl)-2-methoxy-5-(trifluoromethyl)phenyl)-3-(trans-4-((2-(pyridin-3-yl)pyrimidin-4-yl)oxy)cyclohexyl)urea] came in with a concentration for half-maximal inhibition (IC50) of 33.8 nM. The result for `CCOc1ccc(C(F)(F)F)cc1NC(=O)N[C@H]1CC[C@H](Oc2ccnc(N3CCOCC3)n2)CC1` [Example 46, 1-(2-ethoxy-5-(trifluoromethyl)phenyl)-3-(trans-4-((2-morpholinopyrimidin-4-yl)oxy)cyclohexyl)urea] reads 531 nM. In the case of `O=C(Nc1cc(C(F)(F)F)ccc1OC1COC1)N[C@H]1CC[C@H](Oc2ccnc(-c3ccncc3)n2)CC1` [Example 47, 1-(2-(oxetan-3-yloxy)-5-(trifluoromethyl)phenyl)-3-(trans-4-((2-(pyridin-4-yl)pyrimidin-4-yl)oxy)cyclohexyl)urea] it was 56.6 nM. The result for `COc1c(CO)cc(OC(F)(F)F)cc1NC(=O)N[C@H]1CC[C@H](Oc2ccnc(N3CCOCC3)n2)CC1` [Example 50, 1-(3-(hydroxymethyl)-2-methoxy-5-(trifluoromethoxy)phenyl)-3-(trans-4-((2-morpholinopyrimidin-4-yl)oxy)cyclohexyl)urea] reads 35.1 nM; that for `O=C(Nc1ccc(CO)c(C(F)(F)F)c1)N[C@H]1CC[C@H](Oc2ccnc(N3CCOCC3)n2)CC1` [Example 53, 1-(4-(hydroxymethyl)-3-(trifluoromethyl)phenyl)-3-(trans-4-((2-morpholinopyrimidin-4-yl)oxy)cyclohexyl)urea], 254 nM; that for `CNc1ccnc(O[C@H]2CC[C@H](NC(=O)Nc3cc(OC(F)(F)F)ccc3OC)CC2)n1` [Example 54, 1-(2-methoxy-5-(trifluoromethoxy)phenyl)-3-(trans-4-((4-(methylamino)pyrimidin-2-yl)oxy)cyclohexyl)urea], 95.1 nM. `O=C(Nc1cc(C(F)(F)F)ccc1OC1COC1)N[C@H]1CC[C@H](OCc2ccncc2)CC1` [Example 56, 1-(2-(oxetan-3-yloxy)-5-(trifluoromethyl)phenyl)-3-(trans-4-(pyridin-4-ylmethoxy)cyclohexyl)urea] yielded an IC50 of 55.8 nM. Consider `O=C(Nc1cc(C(F)(F)F)ccc1N1CCOCC1)N[C@H]1CC[C@H](Oc2ncccn2)CC1` [Example 57, 1-(2-morpholino-5-(trifluoromethyl)phenyl)-3-(trans-4-(pyrimidin-2-yloxy)cyclohexyl)urea], for which the IC50 came out at 653 nM. Against the preceding compound, the IC50 is about 12-fold higher.

The compound `O=C(Nc1cc(C(F)(F)F)ccc1Cl)N[C@H]1CC[C@H](Oc2ncccn2)CC1` [Example 58, 1-(2-chloro-5-(trifluoromethyl)phenyl)-3-(trans-4-(pyrimidin-2-yloxy)cyclohexyl)urea] had an IC50 of 528 nM.

With `COc1ccc(OC(F)(F)F)cc1NC(=O)N[C@H]1CC[C@H](Oc2cc(N3CCOCC3)ncn2)CC1` [Example 59, 1-(2-methoxy-5-(trifluoromethoxy)phenyl)-3-(trans-4-((6-morpholinopyrimidin-4-yl)oxy)cyclohexyl)urea], half-maximal inhibition (IC50) was put at 335 nM. Compared with the last compound, the IC50 is about 1.6-fold lower.

Compound `COc1c(CO)cc(C(F)(F)F)cc1NC(=O)N[C@H]1CC[C@H](Oc2ccnc(NCCO)n2)CC1` [Example 61, 1-(trans-4-((2-((2-hydroxyethyl)amino)pyrimidin-4-yl)oxy)cyclohexyl)-3-(3-(hydroxymethyl)-2-methoxy-5-(trifluoromethyl)phenyl)urea] registered an IC50 of 57.9 nM. In the case of `COc1ccc(OC(F)(F)F)cc1NC(=O)N[C@H]1CC[C@H](Oc2ccnc(NCCO)n2)CC1` [Example 62, 1-(trans-4-((2-((2-hydroxyethyl)amino)pyrimidin-4-yl)oxy)cyclohexyl)-3-(2-methoxy-5-(trifluoromethoxy)phenyl)urea] it was 138 nM; in that of `O=C(Nc1cc(C(F)(F)F)ccc1OC1COC1)N[C@H]1CC[C@H](Oc2ccnc(NCCO)n2)CC1` [Example 63, 1-(trans-4-((2-((2-hydroxyethyl)amino)pyrimidin-4-yl)oxy)cyclohexyl)-3-(2-(oxetan-3-yloxy)-5-(trifluoromethyl)phenyl)urea], 46.7 nM; in that of `CNc1nccc(O[C@H]2CC[C@H](NC(=O)Nc3cc(C(F)(F)F)ccc3OC3COC3)CC2)n1` [Example 64, 1-(trans-4-((2-(methylamino)pyrimidin-4-yl)oxy)cyclohexyl)-3-(2-(oxetan-3-yloxy)-5-(trifluoromethyl)phenyl)urea], 54.5 nM. The result for `CNc1nccc(O[C@H]2CC[C@H](NC(=O)Nc3cc(C(F)(F)F)cc(CO)c3OC)CC2)n1` [Example 65, 1-(3-(hydroxymethyl)-2-methoxy-5-(trifluoromethyl)phenyl)-3-(trans-4-((2-(methylamino)pyrimidin-4-yl)oxy)cyclohexyl)urea] reads 42.1 nM. The result for `O=C(Nc1cc(C(F)(F)F)ccc1OC1COC1)N[C@H]1CC[C@H](Oc2ccncn2)CC1` [Example 66, 1-(2-(oxetan-3-yloxy)-5-(trifluoromethyl)phenyl)-3-(trans-4-(pyrimidin-4-yloxy)cyclohexyl)urea] reads 98.4 nM. As to `COc1c(CO)cc(OC(F)(F)F)cc1NC(=O)N[C@H]1CC[C@H](OCc2cccnc2)CC1` [Example 67, 1-(3-(hydroxymethyl)-2-methoxy-5-(trifluoromethoxy)phenyl)-3-(trans-4-(pyridin-3-ylmethoxy)cyclohexyl)urea], the IC50 came out at 9.69 nM.

As to `COc1ccc(OC(F)(F)F)cc1NC(=O)N[C@H]1CC[C@H](OCc2cccnc2)CC1` [Example 68, 1-(2-methoxy-5-(trifluoromethoxy)phenyl)-3-(trans-4-(pyridin-3-ylmethoxy)cyclohexyl)urea], the IC50 was determined as 16.6 nM. The result for `COc1ccc(C(F)(F)F)cc1NC(=O)N[C@H]1CC[C@H](OCc2cccnc2)CC1` [Example 69, 1-(2-methoxy-5-(trifluoromethyl)phenyl)-3-(trans-4-(pyridin-3-ylmethoxy)cyclohexyl)urea] reads 17.2 nM; that for `CNc1cc(O[C@H]2CC[C@H](NC(=O)Nc3cc(OC(F)(F)F)cc(CO)c3OC)CC2)ncn1` [Example 70, 1-(3-(hydroxymethyl)-2-methoxy-5-(trifluoromethoxy)phenyl)-3-(trans-4-((6-(methylamino)pyrimidin-4-yl)oxy)cyclohexyl)urea], 13.4 nM. In the case of `CNc1cc(O[C@H]2CC[C@H](NC(=O)Nc3cc(C(F)(F)F)cc(CO)c3OC)CC2)ncn1` [Example 71, 1-(3-(hydroxymethyl)-2-methoxy-5-(trifluoromethyl)phenyl)-3-(trans-4-((6-(methylamino)pyrimidin-4-yl)oxy)cyclohexyl)urea] it was 10.8 nM. `COc1ccc(OC(F)(F)F)cc1NC(=O)N[C@H]1CC[C@H](COCc2cccnc2)CC1` [Example 72, 1-(2-methoxy-5-(trifluoromethoxy)phenyl)-3-(trans-4-((pyridin-3-ylmethoxy)methyl)cyclohexyl)urea] returned an IC50 of 82.2 nM. This IC50 lies about 7.6-fold higher than the previous one.
